Laboratory results as given in patent US20050096297A1, “Antibacterial agents” (priority 2003, published 2005).
Values after ≈ are worked out from the molar mass of the structure shown.

Tests used:
Experiment in all cases: Test A antibacterial assay, MIC by microtitration
Assay type in all cases: cell-based
E. coli EC-2549 = conditions: Escherichia coli, EC2549; Gram Negative Bacteria; strain EC-2549; read-out: Minimum Inhibitory Concentrations E. coli EC-2549
Experimental: (§1) Test A—Antibacterial Assays
(§2) The compounds of the present invention were tested against an assortment of Gram-negative and Gram-positive organisms using standard microtitration techniques (Cohen et. al., Antimicrob., 1985;28:766; Heifetz, et. al., Antimicrob., 1974;6:124).

M. catarrhalis BC-3531 = conditions: Moraxella catarrhalis, BC3531; Gram Negative Bacteria; strain BC-3531; read-out: Minimum Inhibitory Concentrations M. catarrhalis BC-3531
Experimental: as §1, §2

H. influenzae HI-3542 = conditions: Haemophilus influenzae, HI3542; Gram Negative Bacteria; strain HI-3542; read-out: Minimum Inhibitory Concentrations H. influenzae HI-3542
Experimental: as §1, §2

S pyogenes C203 = conditions: Gram Positive Bacteria; strain C203; read-out: Minimum Inhibitory Concentrations S pyogenes C203
Experimental: as §1, §2

S. aureus UC-76 = conditions: Staphylococcus aureus, UC76; Gram Positive Bacteria; strain UC-76; read-out: Minimum Inhibitory Concentrations S. aureus UC-76
Experimental: as §1, §2

E. faecalis MGH-2 = conditions: Enterococcus faecalis, MGH2; Gram Positive Bacteria; strain MGH-2; read-out: Minimum Inhibitory Concentrations E. faecalis MGH-2
Experimental: as §1, §2

| Structure (SMILES) | MIC (E. coli EC-2549) | MIC (M. catarrhalis BC-3531) | MIC (H. influenzae HI-3542) | MIC (S pyogenes C203) | MIC (S. aureus UC-76) | MIC (E. faecalis MGH-2) |
| --- | --- | --- | --- | --- | --- | --- |
| Cc1c(N2CC(O)(C(F)(F)F)C2)c(F)cc2c(=O)c(C(=O)O)cn(C3CC3)c12 | 0.0004 µg/mL (≈ 0.000999 µM) | 0.06 µg/mL (≈ 0.15 µM) | 0.03 µg/mL (≈ 0.0749 µM) |  |  |  |
| Cc1c(N2CC(CCO)C2)c(F)cc2c(=O)c(C(=O)O)cn(C3CC3)c12 [drawing 130] | 0.002 µg/mL (≈ 0.00555 µM) | 0.015 µg/mL (≈ 0.0416 µM) | 0.008 µg/mL (≈ 0.0222 µM) |  |  |  |
| O=C(O)c1cn(C2CC2)c2c(Cl)c(N3CC(O)(C4CC4)C3)c(F)cc2c1=O [drawing 132] | 0.002 µg/mL (≈ 0.00509 µM) | 0.03 µg/mL (≈ 0.0764 µM) | 0.03 µg/mL (≈ 0.0764 µM) |  |  |  |
| Cc1c(N2CC(CCO)C2)c(F)cc2c(=O)c(C(=O)O)cn(C3CC3)c12 [drawing 133] |  |  |  | 0.25 µg/mL (≈ 0.694 µM) | 0.03 µg/mL (≈ 0.0832 µM) | 0.25 µg/mL (≈ 0.694 µM) |
| O=C(O)c1cn(C2CC2)c2c(Cl)c(N3CC(O)(C4CC4)C3)c(F)cc2c1=O [drawing 135] |  |  |  | 0.5 µg/mL (≈ 1.27 µM) | 0.03 µg/mL (≈ 0.0764 µM) | 0.5 µg/mL (≈ 1.27 µM) |
